Laboratory results published in publication PMC12024474 (RSC Medicinal Chemistry, 2025).
Where two headings read alike, the source gives them in different places. Where a SMILES comes first, the peptide text is derived from it. [ ]: non-standard residue; d: D form. Hmp(2R,3S) = CC[C@H](C)[C@@H](O)C(=O)O; Sta = CC(C)C[C@H](N)[C@@H](O)CC(=O)O; dNMeF = CN[C@H](Cc1ccccc1)C(=O)O; NMeQ = CN[C@@H](CCC(N)=O)C(=O)O

What was measured:
CatE = conditions: cited from earlier work
MDA-MB-231 cells = test: MTT cell viability assay; format: cell-based, human; conditions: MDA-MB-231, 48 h treatment

CC[C@H](C)[C@H](NC(=O)C[C@H](O)[C@H](CC(C)C)NC(=O)[C@H](CCC(N)=O)N(C)C(=O)[C@H](CC(C)C)NC(=O)[C@H](O)[C@@H](C)CC)C(=O)NCC(=O)N(C)[C@H](Cc1ccccc1)C(=O)N1CCC[C@H]1C(=O)OC [Grassystatin C, grassystatin C] ({Hmp(2R,3S)}-L[NMeQ][Sta]IG[dNMeF]P-OMe)
preference for CatE compared to CatD (CatE): about 30 fold | preference for CatE compared to CatD (CatE; listed as grassystatin C): > 30 fold

TRAIL: tumor necrosis factor-related apoptosis-inducing ligand
IC50 (cell viability) (MDA-MB-231 cells): 0.025 µg/mL
